The target in test [1] is T1, Human GPR120 short form (Homo sapiens, UniProt Q5NUL3).
T1 construct: expressed in transfected cells
T1 sequence (Q5NUL3 1-361): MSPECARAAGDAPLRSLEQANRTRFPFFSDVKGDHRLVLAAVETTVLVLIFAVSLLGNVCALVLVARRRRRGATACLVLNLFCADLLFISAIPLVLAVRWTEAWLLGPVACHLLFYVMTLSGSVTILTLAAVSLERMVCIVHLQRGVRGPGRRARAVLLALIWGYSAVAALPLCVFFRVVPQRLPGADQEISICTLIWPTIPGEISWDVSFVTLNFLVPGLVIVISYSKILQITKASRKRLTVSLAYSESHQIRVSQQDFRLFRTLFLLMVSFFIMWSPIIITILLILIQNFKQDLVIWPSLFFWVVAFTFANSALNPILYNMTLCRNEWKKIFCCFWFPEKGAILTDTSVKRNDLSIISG
The test can be described thus: Human GPR120 calcium flux assay, Procedure Calcium B (4200 cells/well). It is filed as cell-based. Put shortly: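 Agonist EC50 came from a four-parameter fit of RFU (Fmax−Fmin) read over 300 s on FLIPR. Cells were HEK293 stably transfected with human GPR120 (NM_001195755.1) at 4200 per well, serum-starved 1 h and loaded with Fluo-4 NW dye with probenecid before ligand addition.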
(In general: Calcium assays in cells follow changes in intracellular calcium, usually with a dye or a luminescent sensor.)

Test [2] has as its target T2, human GPR40 (Homo sapiens, UniProt O14842).
T2 construct: expressed in transfected cells
Nature of the test: GPR40 calcium flux assay, human GPR40. It is filed as cell-based. As to conditions: HEK293 cells stably expressing GPR40; table does not say human or rat. Put shortly:
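Cells preincubated 1 h at 37° C. in HBSS, 20 mM HEPES, 0.1% BSA, then Fluo 8 calcium dye 30 min at 37° C. and 15 min at room temperature.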

T2 sequence (O14842 whole entry): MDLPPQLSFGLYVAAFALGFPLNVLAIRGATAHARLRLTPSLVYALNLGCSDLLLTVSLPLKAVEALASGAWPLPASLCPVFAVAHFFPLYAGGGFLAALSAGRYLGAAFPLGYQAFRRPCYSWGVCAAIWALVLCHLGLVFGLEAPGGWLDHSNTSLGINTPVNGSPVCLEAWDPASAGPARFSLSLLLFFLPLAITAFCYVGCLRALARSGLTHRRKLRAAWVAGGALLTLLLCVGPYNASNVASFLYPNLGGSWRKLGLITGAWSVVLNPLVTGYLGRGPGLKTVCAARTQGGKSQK

The EC50 is the concentration at which the effect is half-maximal. On to `O=C(O)CCc1ccc(OCC2=C(C3CC4CCC3C4)CCCC2)cc1C(F)(F)F` (stereo not shown) [Compound 592, 3-[4-[(2-norbornan-2-ylcyclohexen-1-yl)methoxy]-2-(trifluoromethyl)phenyl]Propanoic Acid], for which the values for the EC50 in test [1] and in test [2] were > 5 µM and 1.55 µM, respectively.
Take `O=C(O)CCc1ccc(OCC2=C(C3CC4CCC3C4)CCCC2)cc1Cl` (stereo not shown) [Compound 593, 3-[2-chloro-4-[(2-norbornan-2-ylcyclohexen-1-yl)methoxy]phenyl]Propanoic Acid]: the values for the half-maximal effective concentration (EC50) in test [1] and in test [2] were > 5 µM and 1.3 µM, respectively.
In the case of `O=C(O)CCc1ccc(OCC2=C(C3CCCC3)CCCC2)cc1Cl` [Compound 594, 3-[2-chloro-4-[(2-cyclopentylcyclohexen-1-yl)methoxy]phenyl]Propanoic Acid], the EC50 was 0.362 µM in test [1] and > 10 µM in test [2].
Turning to `O=C(O)CCc1ccc(OCC2=C(Cc3cncs3)CCCC2)cc1Cl` [Compound 595, 3-[2-chloro-4-[[2-(thiazol-5-ylmethyl)cyclohexen-1-yl]methoxy]phenyl]Propanoic Acid], the EC50 in test [1] turned out to be 1.11 µM; in test [2], 0.218 µM.
For `O=C(O)CCc1ccc(OCC2=C(Cc3cncs3)CCCC2)cc1C(F)(F)F` [Compound 596, 3-[4-[[2-(thiazol-5-ylmethyl)cyclohexen-1-yl]methoxy]-2-(trifluoromethyl)phenyl]Propanoic Acid] the same measures were 2.37 µM and 0.324 µM.
For the molecule `CCCCC1=C(COc2ccc(CCC(=O)O)c(C(F)(F)F)c2)CCCC1` [Compound 598, 3-[4-[(2-butylcyclohexen-1-yl)methoxy]-2-(trifluoromethyl)phenyl]Propanoic Acid], the EC50 came to 0.399 µM in test [1] and 0.177 µM in test [2].
`O=C(O)CCc1ccc(OCC2=C(C3CCC3)CCCC2)cc1C(F)(F)F` [Compound 599, 3-[4-[(2-cyclobutylcyclohexen-1-yl)methoxy]-2-(trifluoromethyl)phenyl]Propanoic Acid]: the EC50 in test [1] is 1.35 µM; in test [2], 0.098 µM.
With `O=C(O)CCc1ccc(OCC2=C(C3CCC3)CCCC2)cc1Cl` [Compound 600, 3-[2-chloro-4-[(2-cyclobutylcyclohexen-1-yl)methoxy]phenyl]Propanoic Acid], the EC50 in test [1] is 1.2 µM; in test [2] it was 0.024 µM.
For `O=C(O)CCc1ccc(OCC2=C(C3CCCCC3)CCCC2)cc1Cl` [Compound 602, 3-[2-chloro-4-[(2-cyclohexylcyclohexen-1-yl)methoxy]phenyl]Propanoic Acid] the same measures were 2.41 µM and 1.06 µM.
For `O=C(O)CCc1ccc(OCC2=C(C3CCCC3)CCCC2)cc1C(F)(F)F` [Compound 603, 3-[4-[(2-cyclopentylcyclohexen-1-yl)methoxy]-2-(trifluoromethyl)phenyl]Propanoic Acid], the EC50 was found to be 1.97 µM in test [1] and 0.185 µM in test [2].
Turning to `CC1(C)CCC(C2CCCC2)=C(COc2ccc(CCC(=O)O)c(C(F)(F)F)c2)C1` [Compound 604, 3-[4-[(2-cyclopentyl-5,5-dimethyl-cyclohexen-1-yl)methoxy]-2-(trifluoromethyl)phenyl]Propanoic Acid], the EC50 in test [1] was found to be 2.01 µM; in test [2] it was 1.5 µM.
In the case of `CC1(C)CCC(C2CCCC2)=C(COc2ccc(CCC(=O)O)c(Cl)c2)C1` [Compound 605, 3-[2-chloro-4-[(2-cyclopentyl-5,5-dimethyl-cyclohexen-1-yl)methoxy]phenyl]Propanoic Acid], the EC50 was determined as 1.17 µM in test [1] and 0.852 µM in test [2].
With `O=C(O)CCc1ccc(OCC2=C(C3CCCC3)CCC(F)(F)C2)cc1C(F)(F)F` [Compound 606, 3-[4-[(2-cyclopentyl-5,5-difluoro-cyclohexen-1-yl)methoxy]-2-(trifluoromethyl)phenyl]Propanoic Acid], the EC50 in test [1] worked out at 0.166 µM; in test [2], 0.247 µM.
For `O=C(O)CCc1ccc(OCC2=C(C3CCCC3)CCC(F)(F)C2)cc1Cl` [Compound 607, 3-[2-chloro-4-[(2-cyclopentyl-5,5-difluoro-cyclohexen-1-yl)methoxy]phenyl]Propanoic Acid] the same measures were 0.148 µM and 0.325 µM.
On to `O=C(O)CCc1ccc(OCC2=C(C3CCCC3)CCC(F)(F)CC2)cc1F` [Compound 610, 3-[4-[(2-cyclopentyl-5,5-difluoro-cyclohepten-1-yl)methoxy]-2-fluoro-phenyl]Propanoic Acid], for which the EC50 in test [1] amounted to 0.302 µM; in test [2], 0.267 µM.
With `O=C(O)CCc1ccc(OCC2=C(C3CCCC3)CCC(F)(F)CC2)cc1` [Compound 611, 3-[4-[(2-cyclopentyl-5,5-difluoro-cyclohepten-1-yl)methoxy]phenyl]Propanoic Acid], the figures for the EC50 in test [1] and in test [2] were 0.312 µM and 0.733 µM, respectively.
Regarding `O=C(O)CCc1ccc(OCC2=C(C3CCCC3)CCCCC2)cc1C(F)(F)F` [Compound 612, 3-[4-[(2-cyclopentylcyclohepten-1-yl)methoxy]-2-(trifluoromethyl)phenyl]Propanoic Acid], the EC50 stood at 0.233 µM in test [1] and 0.107 µM in test [2].
Take `O=C(O)CCc1ccc(OCC2=C(C3CCCC3)CCCCC2)cc1F` [Compound 613, 3-[4-[(2-cyclopentylcyclohepten-1-yl)methoxy]-2-fluoro-phenyl]Propanoic Acid]: the EC50 in test [1] is 0.436 µM; in test [2] it was 0.225 µM.
Consider `O=C(O)CCc1ccc(OCC2=C(C3CCCC3)CCCCC2)cc1` [Compound 614, 3-[4-[(2-cyclopentylcyclohepten-1-yl)methoxy]phenyl]Propanoic Acid], for which the EC50 is 0.376 µM in test [1] and 0.56 µM in test [2].
For `Cc1c(CCC(=O)O)ccc(OCC2=C(c3ccc(Cl)cc3)CCCCC2)c1C` [Compound 615, 3-[4-[[2-(4-chlorophenyl)cyclohepten-1-yl]methoxy]-2,3-dimethyl-phenyl]Propanoic Acid] the same measures were 0.172 µM and > 10 µM.
Take `Cc1c(CCC(=O)O)ccc(OCC2=C(c3ccc(Cl)cc3)CCC(F)(F)CC2)c1C` [Compound 616, 3-[4-[[2-(4-chlorophenyl)-5,5-difluoro-cyclohepten-1-yl]methoxy]-2,3-dimethyl-phenyl]Propanoic Acid]: the EC50 in test [1] was 0.166 µM; in test [2], 3.55 µM.
On to `O=C(O)CCc1ccc(OCC2=C(C3CCCC3)CCC(F)(F)CC2)cc1C(F)(F)F` [Compound 617, 3-[4-[(2-cyclopentyl-5,5-difluoro-cyclohepten-1-yl)methoxy]-2-(trifluoromethyl)phenyl]Propanoic Acid], for which the figures for the EC50 in test [1] and in test [2] were 0.215 µM and 0.103 µM, respectively.
As for `Cc1c(CCC(=O)O)ccc(OCC2=C(C3CCCC3)CCC(F)(F)CC2)c1C` [Compound 618, 3-[4-[(2-cyclopentyl-5,5-difluoro-cyclohepten-1-yl)methoxy]-2,3-dimethyl-phenyl]Propanoic Acid], the values for the EC50 in test [1] and in test [2] were 0.188 µM and > 10 µM, respectively.

These data come from patent publication US11230526B1, “Cylcoalkenyl derivatives useful as agonists of the GPR120 and/or GPR40 receptors” (Janssen Pharmaceutica NV, priority 2018, dated 2022).
